Data reported in PMC3586229 (Bioorganic & medicinal chemistry letters, 2012).

Format: physicochemical
Details: for Stability in aqueous solution (MS, time course): DMSO solution diluted 1 to 1000 in water, followed over 24 h

CC(C)C[C@H](NC(=O)OCc1ccccc1)C(=O)N[C@H](C=O)CC1CCNC1=O (stereo partly drawn) [Compound 6a]
Stability in aqueous solution (MS, time course): the hydrated form was the dominant species after only five minutes exposure to water

CC(C)C[C@H](NC(=O)OCc1ccccc1)C(=O)N[C@@H](CC1CCNC1=O)C(O)S(=O)(=O)[O-].[Na+] (stereo partly drawn) [Compound 7a]
Stability in aqueous solution (MS, time course): remains unchanged as the bisulfite form after 24 h
Stability in buffer solution (buffer solution, pH 7.4): gradually dissociates into the corresponding aldehyde 6a within an hour
